# From ChEMBL document CHEMBL3991601, “The target landscape of clinical kinase drugs” (Science, 2017)
# Calls of active or inactive are those of the source.
# What was measured:
# [1] = biological target: Dual specificity protein kinase CLK4 (Homo sapiens, UniProt Q9HAZ1)
# [2] = biological target: Serine/threonine-protein kinase 38-like (Homo sapiens, UniProt Q9Y2H1)
# [3] = biological target: T1, Cyclin-dependent kinase-like 5 (Homo sapiens, UniProt O76039)
# T1 sequence (O76039 whole entry): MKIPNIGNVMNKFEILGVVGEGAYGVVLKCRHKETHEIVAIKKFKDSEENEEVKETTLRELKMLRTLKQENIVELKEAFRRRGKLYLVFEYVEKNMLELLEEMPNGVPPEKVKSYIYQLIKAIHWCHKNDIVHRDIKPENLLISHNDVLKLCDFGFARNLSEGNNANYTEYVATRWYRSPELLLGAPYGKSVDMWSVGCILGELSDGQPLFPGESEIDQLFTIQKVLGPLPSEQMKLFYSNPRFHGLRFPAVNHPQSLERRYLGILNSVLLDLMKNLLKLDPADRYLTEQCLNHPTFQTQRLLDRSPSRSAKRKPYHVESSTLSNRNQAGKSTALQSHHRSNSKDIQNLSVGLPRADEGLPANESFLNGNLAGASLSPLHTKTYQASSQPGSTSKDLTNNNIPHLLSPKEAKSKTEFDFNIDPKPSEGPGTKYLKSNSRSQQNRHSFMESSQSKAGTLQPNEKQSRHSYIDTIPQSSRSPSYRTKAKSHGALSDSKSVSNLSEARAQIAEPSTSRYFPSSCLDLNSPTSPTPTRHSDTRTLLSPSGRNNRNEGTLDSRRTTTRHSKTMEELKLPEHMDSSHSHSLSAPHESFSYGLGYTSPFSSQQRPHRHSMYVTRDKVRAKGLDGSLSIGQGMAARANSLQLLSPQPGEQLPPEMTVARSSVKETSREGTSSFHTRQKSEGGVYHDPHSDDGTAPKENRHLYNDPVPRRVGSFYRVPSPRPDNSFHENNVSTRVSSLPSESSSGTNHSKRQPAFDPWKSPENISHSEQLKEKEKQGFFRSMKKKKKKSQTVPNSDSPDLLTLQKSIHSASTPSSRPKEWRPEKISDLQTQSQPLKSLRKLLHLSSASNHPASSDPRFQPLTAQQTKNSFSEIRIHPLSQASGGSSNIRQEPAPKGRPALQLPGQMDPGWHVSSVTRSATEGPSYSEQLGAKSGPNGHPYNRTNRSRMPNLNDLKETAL
# [4] = biological target: T2, Serine/threonine-protein kinase Nek9 (Homo sapiens, UniProt Q8TD19)
# T2 sequence (Q8TD19 whole entry): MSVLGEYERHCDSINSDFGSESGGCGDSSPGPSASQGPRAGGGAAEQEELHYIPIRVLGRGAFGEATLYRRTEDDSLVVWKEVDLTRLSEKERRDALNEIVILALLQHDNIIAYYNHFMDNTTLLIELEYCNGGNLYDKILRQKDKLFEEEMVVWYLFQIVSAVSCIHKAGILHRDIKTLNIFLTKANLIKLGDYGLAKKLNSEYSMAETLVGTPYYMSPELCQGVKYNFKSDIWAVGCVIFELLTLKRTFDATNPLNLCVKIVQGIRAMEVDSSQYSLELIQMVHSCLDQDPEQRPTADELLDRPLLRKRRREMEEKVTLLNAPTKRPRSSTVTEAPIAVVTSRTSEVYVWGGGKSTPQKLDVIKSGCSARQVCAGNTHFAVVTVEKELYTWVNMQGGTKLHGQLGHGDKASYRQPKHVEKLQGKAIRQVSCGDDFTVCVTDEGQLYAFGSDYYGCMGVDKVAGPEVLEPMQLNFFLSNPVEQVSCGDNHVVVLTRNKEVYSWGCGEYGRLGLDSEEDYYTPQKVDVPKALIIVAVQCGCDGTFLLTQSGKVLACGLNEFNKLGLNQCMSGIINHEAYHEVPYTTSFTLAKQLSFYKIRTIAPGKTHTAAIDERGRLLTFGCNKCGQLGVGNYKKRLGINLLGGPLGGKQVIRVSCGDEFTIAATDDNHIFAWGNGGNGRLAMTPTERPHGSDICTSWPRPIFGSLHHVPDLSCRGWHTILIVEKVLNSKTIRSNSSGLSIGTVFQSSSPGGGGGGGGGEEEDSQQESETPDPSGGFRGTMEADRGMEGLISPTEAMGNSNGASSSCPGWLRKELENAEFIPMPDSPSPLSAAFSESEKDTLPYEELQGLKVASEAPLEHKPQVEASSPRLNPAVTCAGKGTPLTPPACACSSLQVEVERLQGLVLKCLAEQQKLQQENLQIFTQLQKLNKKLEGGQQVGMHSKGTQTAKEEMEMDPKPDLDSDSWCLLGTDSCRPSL
# [5] = biological target: Misshapen-like kinase 1 (Homo sapiens, UniProt Q8N4C8)
# [6] = biological target: T3, Dual specificity mitogen-activated protein kinase kinase 4 (Homo sapiens, UniProt P45985)
# T3 sequence (P45985 whole entry): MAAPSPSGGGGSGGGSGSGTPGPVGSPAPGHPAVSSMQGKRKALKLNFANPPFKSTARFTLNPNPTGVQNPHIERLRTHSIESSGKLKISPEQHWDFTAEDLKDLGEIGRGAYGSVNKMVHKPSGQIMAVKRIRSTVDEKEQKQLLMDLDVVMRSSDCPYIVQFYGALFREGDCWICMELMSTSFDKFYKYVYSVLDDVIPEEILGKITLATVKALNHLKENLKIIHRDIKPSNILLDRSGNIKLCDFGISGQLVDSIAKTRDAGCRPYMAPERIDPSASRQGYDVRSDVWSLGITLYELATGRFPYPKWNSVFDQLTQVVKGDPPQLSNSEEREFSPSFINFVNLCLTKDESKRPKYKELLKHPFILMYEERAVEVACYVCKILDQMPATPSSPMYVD
# [7] = biological target: Serine/threonine-protein kinase Nek7 (Homo sapiens, UniProt Q8TDX7)
# Also: in the data inactive means no Kd found up to 30 µM.
# Chain of Serine/threonine-protein kinase 38-like (Q9Y2H1 whole entry): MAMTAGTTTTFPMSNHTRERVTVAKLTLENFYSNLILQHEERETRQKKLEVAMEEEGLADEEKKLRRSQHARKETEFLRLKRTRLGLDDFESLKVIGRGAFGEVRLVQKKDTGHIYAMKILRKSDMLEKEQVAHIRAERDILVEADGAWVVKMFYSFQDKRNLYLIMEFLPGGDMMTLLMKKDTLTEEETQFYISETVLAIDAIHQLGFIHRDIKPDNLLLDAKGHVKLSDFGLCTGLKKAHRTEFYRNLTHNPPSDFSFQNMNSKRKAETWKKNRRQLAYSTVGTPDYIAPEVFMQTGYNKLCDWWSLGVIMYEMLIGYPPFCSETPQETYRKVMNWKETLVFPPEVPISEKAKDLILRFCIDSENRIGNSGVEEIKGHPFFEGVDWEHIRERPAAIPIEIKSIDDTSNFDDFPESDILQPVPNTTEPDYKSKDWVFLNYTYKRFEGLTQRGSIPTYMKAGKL
# Chain of Serine/threonine-protein kinase Nek7 (Q8TDX7 whole entry): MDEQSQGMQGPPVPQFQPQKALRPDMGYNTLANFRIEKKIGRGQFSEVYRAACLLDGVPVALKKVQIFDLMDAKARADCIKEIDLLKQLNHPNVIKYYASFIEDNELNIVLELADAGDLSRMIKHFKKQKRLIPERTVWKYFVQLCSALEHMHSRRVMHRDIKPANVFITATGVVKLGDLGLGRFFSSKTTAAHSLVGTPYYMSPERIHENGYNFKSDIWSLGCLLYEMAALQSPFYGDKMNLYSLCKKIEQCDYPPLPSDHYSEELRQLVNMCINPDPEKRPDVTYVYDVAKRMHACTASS
# Chain of Misshapen-like kinase 1 (Q8N4C8 whole entry): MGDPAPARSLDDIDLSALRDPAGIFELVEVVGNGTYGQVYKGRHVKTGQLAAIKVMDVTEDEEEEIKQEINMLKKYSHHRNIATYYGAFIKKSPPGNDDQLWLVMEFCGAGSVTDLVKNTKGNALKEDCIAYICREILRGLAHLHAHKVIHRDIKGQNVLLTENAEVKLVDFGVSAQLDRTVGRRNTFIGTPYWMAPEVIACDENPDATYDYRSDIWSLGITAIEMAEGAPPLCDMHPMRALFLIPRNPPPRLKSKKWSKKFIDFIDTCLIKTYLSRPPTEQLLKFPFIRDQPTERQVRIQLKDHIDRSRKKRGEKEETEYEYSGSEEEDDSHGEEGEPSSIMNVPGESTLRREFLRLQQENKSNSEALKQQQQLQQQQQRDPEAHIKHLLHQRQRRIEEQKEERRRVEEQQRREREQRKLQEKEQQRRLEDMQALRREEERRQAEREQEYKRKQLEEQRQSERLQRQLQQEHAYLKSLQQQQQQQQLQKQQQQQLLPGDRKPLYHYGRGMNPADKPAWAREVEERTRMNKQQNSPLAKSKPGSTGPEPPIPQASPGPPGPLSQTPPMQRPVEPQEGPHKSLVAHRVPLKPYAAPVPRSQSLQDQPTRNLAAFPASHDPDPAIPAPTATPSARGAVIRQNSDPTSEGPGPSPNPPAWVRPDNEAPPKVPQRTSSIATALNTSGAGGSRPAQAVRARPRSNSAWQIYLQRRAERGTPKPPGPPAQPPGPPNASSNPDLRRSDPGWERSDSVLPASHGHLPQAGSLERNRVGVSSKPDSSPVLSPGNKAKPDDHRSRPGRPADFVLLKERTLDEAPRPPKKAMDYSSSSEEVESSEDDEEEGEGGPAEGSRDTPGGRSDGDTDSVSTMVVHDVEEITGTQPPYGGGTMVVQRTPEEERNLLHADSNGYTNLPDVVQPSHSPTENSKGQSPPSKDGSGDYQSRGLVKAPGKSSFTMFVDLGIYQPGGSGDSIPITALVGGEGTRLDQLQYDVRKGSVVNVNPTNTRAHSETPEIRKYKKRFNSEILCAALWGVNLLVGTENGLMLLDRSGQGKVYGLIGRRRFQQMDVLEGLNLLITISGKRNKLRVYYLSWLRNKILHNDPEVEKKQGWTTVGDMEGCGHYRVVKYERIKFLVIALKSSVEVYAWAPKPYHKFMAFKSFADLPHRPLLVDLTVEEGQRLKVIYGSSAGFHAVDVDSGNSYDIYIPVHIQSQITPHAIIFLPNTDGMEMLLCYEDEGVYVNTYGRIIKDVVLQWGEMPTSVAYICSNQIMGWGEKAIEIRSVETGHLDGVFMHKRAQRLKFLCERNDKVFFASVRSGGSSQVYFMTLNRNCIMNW
# Chain of Dual specificity protein kinase CLK4 (Q9HAZ1 whole entry): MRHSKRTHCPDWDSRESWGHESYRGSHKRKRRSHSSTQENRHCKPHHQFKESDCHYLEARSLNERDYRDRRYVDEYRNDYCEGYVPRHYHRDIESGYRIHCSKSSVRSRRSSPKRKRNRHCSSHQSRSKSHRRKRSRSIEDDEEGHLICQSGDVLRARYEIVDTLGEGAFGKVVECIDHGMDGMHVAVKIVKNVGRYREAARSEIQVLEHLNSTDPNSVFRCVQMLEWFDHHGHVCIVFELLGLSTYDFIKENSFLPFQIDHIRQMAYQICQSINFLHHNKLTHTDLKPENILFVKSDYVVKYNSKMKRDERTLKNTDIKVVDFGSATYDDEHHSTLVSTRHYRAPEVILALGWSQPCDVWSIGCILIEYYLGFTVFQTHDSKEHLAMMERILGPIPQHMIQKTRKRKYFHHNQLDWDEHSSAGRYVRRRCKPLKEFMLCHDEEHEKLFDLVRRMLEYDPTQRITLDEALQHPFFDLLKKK
Kd [1],Kd [2],Kd [3],Kd [5],Kd [6],Kd [7],SMILES,Kd [4]
> 30 µM (inactive),> 30 µM (inactive),> 30 µM (inactive),,,,Cc1nc2cc(-c3nn(C(C)C)c4ncnc(N)c34)ccc2o1,> 30 µM (inactive)
> 30 µM (inactive),,,> 30 µM (inactive),> 30 µM (inactive),,Cc1nc(NC(=O)N2CCC[C@H]2C(N)=O)sc1-c1ccnc(C(C)(C)C(F)(F)F)c1 [ALPELISIB],> 30 µM (inactive)
,,> 30 µM (inactive),> 30 µM (inactive),> 30 µM (inactive),> 30 µM (inactive),Cc1cc(C(=O)NOCCO)c(Nc2ccc(I)cc2F)n(C)c1=O [AZD-8330],> 30 µM (inactive)
> 30 µM (inactive),> 30 µM (inactive),,,> 30 µM (inactive),,Cn1cnc2c(F)c(Nc3ccc(Br)cc3F)c(C(=O)NOCCO)cc21 [BINIMETINIB],> 30 µM (inactive)
> 30 µM (inactive),,,> 30 µM (inactive),> 30 µM (inactive),,COc1cc2ncnc(Oc3cccc(NC(=O)Nc4cc(C(C)(C)C(F)(F)F)on4)c3)c2cc1OC [CEP-32496],> 30 µM (inactive)
,> 30 µM (inactive),> 30 µM (inactive),> 30 µM (inactive),,> 30 µM (inactive),Cc1cc(Nc2ncc(Cl)c(Nc3ccccc3S(=O)(=O)C(C)C)n2)c(OC(C)C)cc1C1CCNCC1 [CERITINIB],> 30 µM (inactive)
> 30 µM (inactive),> 30 µM (inactive),> 30 µM (inactive),> 30 µM (inactive),> 30 µM (inactive),,COc1c(OCCCN2CCOCC2)ccc2c1N=C(NC(=O)c1cnc(N)nc1)N1CCN=C21 [COPANLISIB],> 30 µM (inactive)
> 30 µM (inactive),> 30 µM (inactive),> 30 µM (inactive),,,,COCC(=O)NC/C=C/c1ccc2ncnc(Nc3ccc(Oc4ccc(C)nc4)c(C)c3)c2c1 [CP-724714],> 30 µM (inactive)
> 30 µM (inactive),,> 30 µM (inactive),,> 30 µM (inactive),> 30 µM (inactive),CCn1cc(-c2ccnc3[nH]c(-c4cccc(CN(C)C)c4)cc23)c(-c2ccc(NC(=O)N(C)C)cc2)n1 [GSK-1070916],> 30 µM (inactive)
> 30 µM (inactive),> 30 µM (inactive),> 30 µM (inactive),1.77 µM (active),,,FC(F)(F)c1ccc(/C=C/c2nc(COc3ccc(CCCCn4ccnn4)cc3)co2)cc1 [MUBRITINIB],> 30 µM (inactive)
> 30 µM (inactive),> 30 µM (inactive),,> 30 µM (inactive),,> 30 µM (inactive),COc1ncc(-c2ccc3nccc(-c4ccnnc4)c3c2)cc1NS(=O)(=O)c1ccc(F)cc1F [OMIPALISIB],> 30 µM (inactive)
,,> 30 µM (inactive),,> 30 µM (inactive),> 30 µM (inactive),Cc1[nH]c(/C=C2\C(=O)Nc3ccccc32)c(C)c1CCC(=O)O [ORANTINIB],> 30 µM (inactive)
,> 30 µM (inactive),> 30 µM (inactive),,> 30 µM (inactive),,NC(=O)c1c(OCc2c(F)cc(Br)cc2F)nsc1NC(=O)NCCCCN1CCCC1 [OSI-632],> 30 µM (inactive)
,> 30 µM (inactive),,,> 30 µM (inactive),,CC(=O)NCC(=O)N1[C@@H]2CC[C@H]1c1ccc(Nc3ncc(C(F)(F)F)c(NC4CCC4)n3)cc12 [PF-03814735],> 30 µM (inactive)
> 30 µM (inactive),,> 30 µM (inactive),,> 30 µM (inactive),> 30 µM (inactive),Cc1cnc(NC(=O)Nc2cc(Br)c(C)cc2OC[C@@H]2CNCCO2)cn1 [RABUSERTIB],> 30 µM (inactive)
> 30 µM (inactive),> 30 µM (inactive),> 30 µM (inactive),,> 30 µM (inactive),> 30 µM (inactive),CO[C@H]1C[C@@H]2CC[C@@H](C)[C@@](O)(O2)C(=O)C(=O)N2CCCC[C@H]2C(=O)O[C@H]([C@H](C)C[C@@H]2CC[C@@H](OP(C)(C)=O)[C@H](OC)C2)CC(=O)[C@H](C)/C=C(\C)[C@@H](O)[C@@H](OC)C(=O)[C@H](C)C[C@H](C)/C=C/C=C/C=C/1C [RIDAFOROLIMUS],> 30 µM (inactive)
> 30 µM (inactive),> 30 µM (inactive),> 30 µM (inactive),,,> 30 µM (inactive),N#CC1(c2ccc(NC(=O)c3cccnc3NCc3ccncc3)cc2)CCCC1 [RIVOCERANIB],> 30 µM (inactive)
,> 30 µM (inactive),,,> 30 µM (inactive),,CCS(=O)(=O)c1cccc(-c2cc(C(=O)NC3CCN(C)CC3)c(C)c3[nH]c4ncc(C)cc4c23)c1 [TAK-901],> 30 µM (inactive)
> 30 µM (inactive),,> 30 µM (inactive),> 30 µM (inactive),> 30 µM (inactive),> 30 µM (inactive),COc1cc2c(Nc3ccc(Cl)c(Cl)c3F)ncnc2cc1OC[C@@H]1C[C@@H]2CN(C)C[C@@H]2C1 [TESEVATINIB],> 30 µM (inactive)
> 30 µM (inactive),> 30 µM (inactive),,,,> 30 µM (inactive),O=C1NC(=O)[C@@H](c2cn3c4c(cccc24)CCC3)[C@@H]1c1c[nH]c2ccccc12 [TIVANTINIB],> 30 µM (inactive)
> 30 µM (inactive),> 30 µM (inactive),> 30 µM (inactive),,> 30 µM (inactive),,C[C@@H](N)c1ccc(C(=O)Nc2ccnc3[nH]ccc23)cc1 [Y-39983],> 30 µM (inactive)

SMILES,Kd [1],Kd [2],Kd [3],Kd [5],Kd [6],Kd [7],Kd [4]
CC(C)(C)c1nc(-c2cccc(NS(=O)(=O)c3c(F)cccc3F)c2F)c(-c2ccnc(N)n2)s1 [DABRAFENIB],> 30 µM (inactive),,> 30 µM (inactive),> 30 µM (inactive),> 30 µM (inactive),,0.053 µM (active)
O=C(Nc1cc(C(F)(F)F)cc(C(F)(F)F)c1)c1cc(Cl)ccc1O [IMD-0354],,> 30 µM (inactive),> 30 µM (inactive),> 30 µM (inactive),,> 30 µM (inactive),> 30 µM (inactive)
CCCCCCCCCCCCCCCCCCOP(=O)([O-])OC1CC[N+](C)(C)CC1 [PERIFOSINE],,> 30 µM (inactive),,,,,> 30 µM (inactive)
CN1CCN(CCOc2cc(OC3CCOCC3)c3c(Nc4c(Cl)ccc5c4OCO5)ncnc3c2)CC1 [SARACATINIB],,,,,> 30 µM (inactive),> 30 µM (inactive),> 30 µM (inactive)
